Source: BigSolDB 2.1

COC(=O)c1nc[nH]n1
Conditions | solubility (mole fraction)
in 2-pentanone, 278.15 K | 0.000862
in 2-pentanone, 283.35 K | 0.000994
in 2-pentanone, 288.05 K | 0.0012
in 2-pentanone, 292.55 K | 0.00136
in 2-pentanone, 297.95 K | 0.00165
in 2-pentanone, 302.65 K | 0.00192
in 2-pentanone, 307.35 K | 0.00222
in 2-pentanone, 313.05 K | 0.00253
in 2-pentanone, 317.35 K | 0.00285
in 3-pentanone, 278.25 K | 0.000784
in 3-pentanone, 283.35 K | 0.000902
in 3-pentanone, 288.05 K | 0.00107
in 3-pentanone, 292.55 K | 0.00127
in 3-pentanone, 298.35 K | 0.00143
in 3-pentanone, 303.05 K | 0.00172
in 3-pentanone, 307.35 K | 0.00191
in 3-pentanone, 312.85 K | 0.00224
in 3-pentanone, 317.15 K | 0.00243
in MIBK, 278.25 K | 0.000526
in MIBK, 283.35 K | 0.000657
in MIBK, 288.05 K | 0.000734
in MIBK, 292.55 K | 0.000852
in MIBK, 298.35 K | 0.00111
in MIBK, 303.05 K | 0.00127
in MIBK, 307.35 K | 0.00148
in MIBK, 312.55 K | 0.00172
in MIBK, 317.05 K | 0.00197
in THF, 278.15 K | 0.00105
in THF, 283.05 K | 0.00137
in THF, 289.05 K | 0.00196
in THF, 293.25 K | 0.00244
in THF, 298.35 K | 0.00323
in THF, 303.05 K | 0.00419
in THF, 307.35 K | 0.00517
in THF, 313.85 K | 0.00714
in THF, 317.95 K | 0.00875
in acetone, 278.15 K | 0.00153
in acetone, 283.35 K | 0.00181
in acetone, 288.05 K | 0.00203
in acetone, 292.55 K | 0.00232
in acetone, 297.95 K | 0.00286
in acetone, 302.65 K | 0.0033
in acetone, 307.35 K | 0.00382
in acetone, 313.25 K | 0.00458
in acetone, 317.55 K | 0.00508
in acetonitrile, 278.65 K | 0.000843
in acetonitrile, 283.45 K | 0.000993
in acetonitrile, 288.25 K | 0.0012
in acetonitrile, 292.85 K | 0.00142
in acetonitrile, 297.05 K | 0.00168
in acetonitrile, 301.85 K | 0.00206
in acetonitrile, 307.35 K | 0.00245
in acetonitrile, 313.25 K | 0.00305
in acetonitrile, 318.95 K | 0.00384
in cyclohexanone, 278.05 K | 0.00557
in cyclohexanone, 282.95 K | 0.00583
in cyclohexanone, 289.05 K | 0.00622
in cyclohexanone, 293.25 K | 0.00657
in cyclohexanone, 298.35 K | 0.00687
in cyclohexanone, 303.05 K | 0.0075
in cyclohexanone, 307.35 K | 0.00814
in cyclohexanone, 313.75 K | 0.00888
in cyclohexanone, 317.85 K | 0.00962
in cyclopentanone, 277.95 K | 0.00156
in cyclopentanone, 282.85 K | 0.0018
in cyclopentanone, 288.95 K | 0.00219
in cyclopentanone, 293.25 K | 0.00251
in cyclopentanone, 298.25 K | 0.00303
in cyclopentanone, 303.05 K | 0.00356
in cyclopentanone, 307.25 K | 0.00417
in cyclopentanone, 313.65 K | 0.0053
in cyclopentanone, 317.65 K | 0.00632
in ethanol, 278.45 K | 0.00142
in ethanol, 283.15 K | 0.0016
in ethanol, 288.05 K | 0.00204
in ethanol, 292.65 K | 0.00254
in ethanol, 297.25 K | 0.00305
in ethanol, 301.65 K | 0.00378
in ethanol, 306.95 K | 0.00464
in ethanol, 312.65 K | 0.00602
in ethanol, 318.05 K | 0.00759
in isobutanol, 278.65 K | 0.00103
in isobutanol, 283.35 K | 0.00116
in isobutanol, 288.25 K | 0.00141
in isobutanol, 292.85 K | 0.00182
in isobutanol, 297.05 K | 0.00222
in isobutanol, 301.85 K | 0.00273
in isobutanol, 307.15 K | 0.00337
in isobutanol, 313.15 K | 0.00439
in isobutanol, 318.65 K | 0.00581
in isopropanol, 278.55 K | 0.000966
in isopropanol, 283.25 K | 0.00119
in isopropanol, 288.15 K | 0.00146
in isopropanol, 292.75 K | 0.00188
in isopropanol, 297.15 K | 0.00235
in isopropanol, 301.75 K | 0.00297
in isopropanol, 307.05 K | 0.00389
in isopropanol, 312.85 K | 0.00511
in isopropanol, 318.35 K | 0.00693
in methanol, 278.45 K | 0.00294
in methanol, 283.15 K | 0.0033
in methanol, 288.05 K | 0.00385
in methanol, 292.65 K | 0.00467
in methanol, 297.25 K | 0.00537
in methanol, 301.65 K | 0.00645
in methanol, 306.95 K | 0.00768
in methanol, 312.55 K | 0.00952
in methanol, 317.85 K | 0.0115
in n-butanol, 278.55 K | 0.00199
in n-butanol, 283.35 K | 0.00217
in n-butanol, 288.15 K | 0.00246
in n-butanol, 292.75 K | 0.00279
in n-butanol, 297.15 K | 0.00326
in n-butanol, 301.75 K | 0.00378
in n-butanol, 307.15 K | 0.00476
in n-butanol, 312.95 K | 0.00613
in n-butanol, 318.45 K | 0.00818
in n-propanol, 278.55 K | 0.00137
in n-propanol, 283.25 K | 0.00153
in n-propanol, 288.15 K | 0.00183
in n-propanol, 292.75 K | 0.00227
in n-propanol, 297.15 K | 0.00264
in n-propanol, 301.75 K | 0.00325
in n-propanol, 307.05 K | 0.00398
in n-propanol, 312.75 K | 0.00532
in n-propanol, 318.15 K | 0.0069
